# Measurements as given in a melting point compilation (Tetko et al.; mined from patent text by program, amines drawn as free bases though some values may be those of a salt).
row,melting point [°C],Structure (SMILES)
1,129 to 130,CCOC(=O)c1cnn2c(-c3ccsc3)ccnc12
2,152 to 153,CC(=O)NC[C@H]1CN(c2ccc(N3CC(C)(O)C3)c(F)c2)C(=O)O1
3,207,OC1CSC(Oc2ccc(-c3cccnc3)cc2F)C(O)C1O (stereo not drawn)
4,169 to 170,O=C(O)c1cccc(-c2cccc3cc(Cc4cccc(C(F)(F)F)c4)oc23)c1
5,164 to 165,Cc1cc2c3c(c1)nc(N1CCN(C)CC1)n3CCC2
6,189 to 190,CCOC(=O)c1c2n(c3c(Br)c(N4CCN(C)CC4)c(F)cc3c1=O)C(C)S2 (stereo not drawn)
7,97 to 98.3,CC(C)(S)[C@H]1C[C@H](C(=O)O)CS1 (relative stereo)
8,260,O=C(NC(Cc1ccc(NCc2ccccc2)cc1)C(=O)O)c1cn2cc(-c3ccc(Cl)cc3)ccc2n1 (stereo not drawn)
9,136,CCOc1ccc(C=CC(=O)c2c(O)cc(OC)cc2OC)cc1
10,180,COc1ccc(C2CSc3ccccc3N(CC(=O)O)C2=O)cc1 (stereo not drawn)
11,170 to 171,O=C(O)COC1=C(Cc2ccc3ccccc3c2)C(=O)CCC1
12,102 to 103,COc1cc(C(C)C)ccc1C1COc2c(C)c(C)cc(C)c21 (stereo not drawn)
13,260,COC1=Cc2c(n(C)c(=O)n2C)CC1=NNC(=N)N
14,73 to 74,CCCCC(CC)n1nnc2c(Nc3ccc(C(C)C)cc3Br)nc(C)cc21 (stereo not drawn)
15,69 to 71,CCCCC(Cc1ccc(OCCNC(=O)c2ccc(O)nc2)cc1)C(=O)O (stereo not drawn)
16,218 to 220,COc1cc2c(cc1-c1cccnc1)-c1c(C3NCCO3)c3c(n1CC2)C(=O)N(C(C)(C)C)CCC3 (stereo not drawn)
17,148 to 149,Cc1oc(-c2ccccc2)nc1COc1ccc(CON=C2CC(C(=O)O)c3ccccc32)cc1 (stereo not drawn)
18,147 to 148,CON1CCn2c(OC(=O)C(C)(C)C)c(-c3c(C)cc(C)cc3C)c(=O)n2CC1
19,140 to 141,Cc1cc(-n2ccc(OCc3ccccc3)cc2=O)sc1C(=O)NCc1cccc(F)c1
20,293 to 295,CS(=O)(=O)Nc1ccc(C(=O)Nc2cn3cc(Cl)ccc3n2)cc1
21,78 to 82,CC(=O)C(C)N(C(=O)CCl)c1c(C)cccc1C (stereo not drawn)
22,211,Cc1c(OCc2nnn[nH]2)cc2c(c1Cl)C(=O)C1(CCCC1)C2=O
23,193 to 195,Cc1nc(N2CCN(C)CC2)ccc1N1CCCn2c1nc1c(Cl)ccc(C(OC(F)F)C(F)(F)F)c12 (stereo not drawn)
24,108 to 113,O=C(NCC12CC3CC(CC(C3)C1)C2)c1cc(-c2c(F)cccc2C(=O)O)ccc1Cl

row,melting point [°C],Structure (SMILES)
1,270 to 275,O=C1COc2cc(Nc3ccc(O)cc3)ccc2N1
2,108 to 110,CCCCCCCCCc1ccc2c(c1)C1(O)C(=O)c3ccccc3C1(O)O2 (stereo not drawn)
3,80 to 83,COc1ccccc1OCCCOS(N)(=O)=O
4,172 to 175,O=C1C(Cl)=C(C2CCC(c3ccc(Cl)cc3)CC2)C(=O)c2ccccc21 (stereo not drawn)
5,186 to 187,CN(Cc1ccc(NC(=O)C2=Cc3cc(-c4ccncc4)ccc3OCC2)cc1)C1CCOCC1
6,125,COc1ccc2ccc(OC)c3c2c1CCC3CCNC(C)=O (stereo not drawn)
7,187,N[C@@H](CCC(=O)N[C@@H](CS)C(=O)O)C(=O)O
8,169 to 170,CCn1nc(-c2sc(C(=O)NCc3ccccn3)nc2-c2ccccc2)ccc1=O
9,148 to 150,COC(=O)C1=C(C)NCC(C)(C(=O)OC)C1c1ccccc1C=C[Si](C)(C)C (stereo not drawn)
10,102 to 104,COc1cccc(Oc2ccc3nc(C(C)=O)c(O)cc3c2)c1
11,232 to 233,CCCCCCc1ccnc(-c2ccc(C(N)=O)cc2)n1
12,150 to 152,CCOC(=O)Cc1nsc2ccc(-n3c(=O)cc(C(F)(F)F)n(C)c3=O)cc12
13,148 to 149,CN1N=C(c2ccccc2Cl)N(C)N=C1c1ccccc1Cl
14,164 to 166,Cc1ccc(-c2ccccc2-c2nnnn2-c2ccc([N+](=O)[O-])cc2)cc1
15,270,CNc1ncn(-c2c(Cl)cccc2Cl)c(=O)n1
16,140 to 141,Cc1ccc(C(=O)c2noc(CC(=O)O)n2)cc1
17,< 300,Cc1[nH]c(=S)[nH]c1C(N)=O
18,187 to 188,OC1CCCc2nc3cc(Cl)ccc3c(NCc3ccc(F)cc3)c21 (stereo not drawn)
19,76 to 78,CCc1nc2ccc3c(c2o1)C(CCNC(C)=O)CC3 (stereo not drawn)
20,78 to 79,CC(C)OC(=O)N1CCN(c2ccn3ncc(Br)c3n2)CC1
21,155,C=CCc1c(-c2cc(=O)c3c(O)cc(OCC(=O)OCC)cc3o2)ccc(OC)c1O
22,248 to 255,Cc1ccc(-c2cn(-c3ccc4c(c3)c3ccccc3n4C)c(-c3ccc(C)s3)n2)s1
23,186 to 187,N#Cc1cc(Cn2cncn2)cc(-c2ccc(O)cc2)c1
24,119 to 120,CC(C)[C@H](OCc1ccccc1)[C@H]1[C@H]([N+](=O)[O-])[C@H](C(C)(C)C)N[C@@H]1C(=O)NCC(=O)O

row,melting point [°C],Structure (SMILES)
1,220,CN(C)C=Nc1sc(C=O)c(Br)c1C#N
2,82 to 84,COc1ccc(-c2cc(-c3ccc(-c4c(Cc5ccccc5)sc5ccccc45)cc3)ccc2OC(Cc2ccccc2)C(=O)O)cc1 (stereo not drawn)
3,223,O=c1[nH]c2ccccc2c(=O)n1C1CCN(Cc2ccccc2)CC1
4,118 to 119,Nc1cc(Br)ccc1-c1ccc(Br)cc1N
5,132 to 135,CSc1nnc(-c2ccc(F)cc2)c(-c2ccc(F)cc2)n1
6,195 to 197,Cc1ccc(S(=O)(=O)OCCc2cc3ccccc3o2)cc1
7,143 to 144,CCCN1CCc2[nH]c3ccc4sccc4c3c2C1
8,286 to 291,CCCn1c(=O)[nH]c(=O)c2[nH]c(/C=C/c3cc(OC)c(OC)c(OC)c3)nc21
9,120,CCCCC1(CCCC)CS(=O)(=O)c2ccc(N(C)C)cc2[C@H](c2ccc(OCCOCCC(C(=O)O)C(=O)O)cc2)[C@@H]1O
10,145 to 161,Cc1ccccc1OCC(O)CNC(C)COc1cccnc1C(N)=O (stereo not drawn)
11,141,C=CCNc1nc(NC(=O)NCCCC)c2scc(C)c2n1
12,130,CC1(C)CC(=O)N(CCOC(OCCN2C(=O)CC(C)(C)CC2=O)(C(=O)c2ccccc2)c2ccccc2)C(=O)C1
13,154 to 155,Cc1ccc(N2CCN(Cc3ccc4ccc(=O)oc4c3)CC2)cc1
14,131 to 134,CN1C(=O)CC[C@]2(C)c3ccc(-c4cccc(Cl)c4Cl)cc3CC[C@@H]12
15,65 to 67,COC(=O)Cc1c(OC)ncnc1Oc1cccc(C(C)=O)c1
16,193 to 195,CN1CCC(NC(=O)Nc2ccccc2CCc2cc(C(C)(C)C)c(O)c(C(C)(C)C)c2)CC1
17,90 to 90.4,CCOC(=O)c1oc2ccc([N+](=O)[O-])cc2c1OC
18,256 to 260,O=S(=O)(Nc1nc2ncc(Cl)cn2n1)c1ccccc1Cl
19,135 to 137,C=CCOc1cc(C(=O)OC)cc(OCC=C)c1NC(C)=O
20,137,N#Cc1cc(F)c(N=c2snc3n2CCCC3)cc1F
21,84 to 87,CCOC(=O)C(C#N)=NOS(=O)(=O)c1ccc(C)cc1
22,159,O=C1N[C@H]2OC(c3ccccc3)=N[C@@H]12
23,> 300,COc1c(-c2ccc3cc(NS(C)(=O)=O)ccc3c2)cc(-c2ccc[nH]c2=O)cc1C(C)(C)C
24,189 to 191,COC(=O)C[C@@H](N)c1ccc(NC(=O)Cc2ccc(NC(=O)Nc3ccccc3C)c(OC)c2)cc1

row,melting point [°C],Structure (SMILES)
1,188 to 190,O=C1C(Cc2ccccc2CF)c2ccccc2C12COc1cc3c(cc12)OCCO3 (stereo not drawn)
2,91 to 92,C#CCCCOc1ccc(C=O)cc1OC
3,261 to 263,CC(C)(CNC(=O)Cc1cnc[nH]1)c1ccc(C(=O)Nc2cn3cc(C(F)(F)F)ccc3n2)cc1
4,68 to 70,Fc1ccc(SCCCN2CCN(c3ncc(F)cn3)CC2)cc1
5,241 to 244,O=C(N[C@H]1CC[C@H](N2CCN(c3ccccn3)CC2)CC1)c1ccccc1
6,216,CC1(C)Oc2ccc(Br)cc2C(n2ccccc2=O)=C1CN(O)C(N)=O
7,76 to 79,COC(=O)c1c(CBr)cccc1CBr
8,80 to 81,COc1ccc(-c2c(C#N)ccnc2SC)cc1
9,81 to 82,CCOC(=O)CCc1cn(CCc2ccc(OCc3nc(-c4ccccc4)oc3C)cc2)nc1-c1ccccc1
10,206 to 208,COc1ccc([N+](=O)[O-])c(Nc2ccc3[nH]ncc3c2)n1
11,86 to 87,COC(=O)C[C@]1(C)[C@@H](O)CC[C@H]1C1CCc2cc(OC)ccc2C1 (stereo partly drawn)
12,120 to 122,CCNC(=S)Nc1cc(Cl)ccc1C
13,230 to 233,O=[N+]([O-])c1oc2c(ccc3ccccc32)c1-c1ccc(Br)cc1
14,177 to 180,C#CCN1CCN(C2Cc3ccc(OC)cc3Sc3ccc(Cl)cc32)CC1 (stereo not drawn)
15,284 to 285,CC1=C(Nc2ccc(C3=NNC(=O)CC3)cc2)CCC1=O
16,120 to 130,O=C(/C=C/c1cccc(F)c1)N1CCN(C(=O)c2cc(C(F)(F)F)cc(C(F)(F)F)c2)[C@H](Cc2c[nH]c3ccccc23)C1
17,46 to 48,COC(=O)CC[C@@H](CF)NC(=O)OCc1ccccc1
18,198 to 205,O=C(Nc1nc2c(Oc3cc(-c4ccc(C(F)(F)F)cc4)ncn3)cccc2s1)C(O)c1ccccc1 (stereo not drawn)
19,174 to 178,CN1C(=O)CN(c2cccc(C#N)c2)NC1=O
20,165 to 166,CN(C)CCCC(=O)Nc1nc2c(s1)-c1c(cnn1-c1ccccc1)CC2
21,147 to 149,CC(C)C(=O)c1cccn1N1C(=O)c2ccccc2C1=O
22,100 to 102,COC1C2=C3C(=CN1OC)OCCC3CC(C(C)=O)C2 (stereo not drawn)
23,191 to 193,Cc1cnc(CNC(=O)c2sc(N3CCN(Cc4ccc(F)cc4)C3=O)nc2C)cn1

row,Structure (SMILES),melting point [°C]
1,Cc1nnc2n1-c1ccc(C#CCn3c(C)nc4ccccc4c3=O)cc1C(c1ccccc1F)=NC2,241 to 244
2,COc1ccc2c(c1)C13CCN(C#N)C(C2)C1C(C)CC(=O)C3 (stereo not drawn),202 to 205
3,O=c1[nH]c2cc(Cl)ccc2n1C1CCN(Cc2ccnc(-c3ccc(Cl)cc3)c2)CC1,186 to 188
